Results taken from ChEMBL document CHEMBL2176881, “Development of N-[4-[6-(isopropylamino)pyrimidin-4-yl]-1,3-thiazol-2-yl]-N-methyl-4-[11C]methylbenzamide for positron emission tomography imaging of metabotropic glutamate 1 receptor in monkey brain” (J Med Chem, 2012).
pIC50, pKi: −log10 of the molar value. The source made the active and inactive calls. The calls are words filed in the database; no cut-off is given here.

Legend:
[1] = biological target: Metabotropic glutamate receptor 1 (Rattus norvegicus, UniProt P23385); experiment: Displacement of [18F]FITM from mGlu1 receptor in rat brain homogenates after 1 hr by gamma counting; assay type: tissue-based
[2] = biological target: Metabotropic glutamate receptor 5 (Rattus norvegicus, UniProt P31424); experiment: Displacement of [11C]-ABP688 from mGlu5 receptor in rat brain homogenates after 1 hr by gamma counting; assay type: tissue-based
[3] = biological target: Metabotropic glutamate receptor 1 (Rattus norvegicus) (UniProt P23385); experiment: Binding affinity to mGlu1 receptor in rat hippocampus; assay type: tissue-based
[4] = biological target: Metabotropic glutamate receptor 1 (Rattus norvegicus) (UniProt P23385); experiment: Binding affinity to mGlu1 receptor in rat striatum at 7.4 MBq after 60 mins by autoradiography; assay type: tissue-based; conditions: 7.4 M, tested as the 14C-labelled form
[5] = biological target: Metabotropic glutamate receptor 1 (Rattus norvegicus) (UniProt P23385); experiment: Binding affinity to mGlu1 receptor in rat hippocampus at 7.4 MBq after 60 mins by autoradiography; assay type: tissue-based; conditions: 7.4 M, tested as the 14C-labelled form
[6] = biological target: Metabotropic glutamate receptor 1 (Rattus norvegicus) (UniProt P23385); experiment: Binding affinity to mGlu1 receptor in rat brain cerebral cortex at 7.4 MBq after 60 mins by autoradiography; assay type: tissue-based; conditions: 7.4 M, tested as the 14C-labelled form
[7] = biological target: Metabotropic glutamate receptor 1 (Rattus norvegicus) (UniProt P23385); experiment: Binding affinity to mGlu1 receptor in rat thalamus; assay type: tissue-based
[8] = Lipophilicity, log D of the compound by shake flask method; assay type: physicochemical; conditions: octanol/water
[9] = biological target: Metabotropic glutamate receptor 1 (Rattus norvegicus) (UniProt P23385); experiment: Binding affinity to mGlu1 receptor in rat thalamus at 7.4 MBq after 60 mins by autoradiography; assay type: tissue-based; conditions: 7.4 M, tested as the 14C-labelled form
[10] = biological target: Metabotropic glutamate receptor 1 (Rattus norvegicus) (UniProt P23385); experiment: Binding affinity to mGlu1 receptor in rat cerebellum at 7.4 MBq after 60 mins by autoradiography; assay type: tissue-based; conditions: 7.4 M, tested as the 14C-labelled form
[11] = biological target: Metabotropic glutamate receptor 1 (Rattus norvegicus) (UniProt P23385); experiment: Binding affinity to mGlu1 receptor in rat brain homogenates at 7.4 MBq after 60 mins by autoradiography in presence of unlabeled 4-(6-chloropyrimidin-4-yl)-N-methylthiazol-2-amine; assay type: tissue-based; conditions: 7.4 M, tested as the 14C-labelled form
[12] = biological target: Metabotropic glutamate receptor 1 (Rattus norvegicus) (UniProt P23385); experiment: Binding affinity to mGlu1 receptor in rat brain substantia nigra pars reticulate at 7.4 MBq after 60 mins by autoradiography; assay type: tissue-based; conditions: 7.4 M, tested as the 14C-labelled form
[13] = biological target: Metabotropic glutamate receptor 1 (Rattus norvegicus) (UniProt P23385); experiment: Binding affinity to mGlu1 receptor in rat striatum; assay type: tissue-based
[14] = biological target: Metabotropic glutamate receptor 1 (Rattus norvegicus) (UniProt P23385); experiment: Binding affinity to mGlu1 receptor in rat brain homogenates at 7.4 MBq after 60 mins by autoradiography in presence of unlabeled N-[4-[6-(Isopropylamino)pyrimidin-4-yl]-1,3-thiazol-2-yl]- N,4-dimethylbenzamide; assay type: tissue-based; conditions: 7.4 M, tested as the 14C-labelled form
[15] = biological target: Metabotropic glutamate receptor 1 (Rattus norvegicus) (UniProt P23385); experiment: Binding affinity to mGlu1 receptor in rat brain pons at 7.4 MBq after 60 mins by autoradiography; assay type: tissue-based; conditions: 7.4 M, tested as the 14C-labelled form

Sequence of Metabotropic glutamate receptor 1 (Rattus norvegicus) (P23385 19-1199 limits assumed): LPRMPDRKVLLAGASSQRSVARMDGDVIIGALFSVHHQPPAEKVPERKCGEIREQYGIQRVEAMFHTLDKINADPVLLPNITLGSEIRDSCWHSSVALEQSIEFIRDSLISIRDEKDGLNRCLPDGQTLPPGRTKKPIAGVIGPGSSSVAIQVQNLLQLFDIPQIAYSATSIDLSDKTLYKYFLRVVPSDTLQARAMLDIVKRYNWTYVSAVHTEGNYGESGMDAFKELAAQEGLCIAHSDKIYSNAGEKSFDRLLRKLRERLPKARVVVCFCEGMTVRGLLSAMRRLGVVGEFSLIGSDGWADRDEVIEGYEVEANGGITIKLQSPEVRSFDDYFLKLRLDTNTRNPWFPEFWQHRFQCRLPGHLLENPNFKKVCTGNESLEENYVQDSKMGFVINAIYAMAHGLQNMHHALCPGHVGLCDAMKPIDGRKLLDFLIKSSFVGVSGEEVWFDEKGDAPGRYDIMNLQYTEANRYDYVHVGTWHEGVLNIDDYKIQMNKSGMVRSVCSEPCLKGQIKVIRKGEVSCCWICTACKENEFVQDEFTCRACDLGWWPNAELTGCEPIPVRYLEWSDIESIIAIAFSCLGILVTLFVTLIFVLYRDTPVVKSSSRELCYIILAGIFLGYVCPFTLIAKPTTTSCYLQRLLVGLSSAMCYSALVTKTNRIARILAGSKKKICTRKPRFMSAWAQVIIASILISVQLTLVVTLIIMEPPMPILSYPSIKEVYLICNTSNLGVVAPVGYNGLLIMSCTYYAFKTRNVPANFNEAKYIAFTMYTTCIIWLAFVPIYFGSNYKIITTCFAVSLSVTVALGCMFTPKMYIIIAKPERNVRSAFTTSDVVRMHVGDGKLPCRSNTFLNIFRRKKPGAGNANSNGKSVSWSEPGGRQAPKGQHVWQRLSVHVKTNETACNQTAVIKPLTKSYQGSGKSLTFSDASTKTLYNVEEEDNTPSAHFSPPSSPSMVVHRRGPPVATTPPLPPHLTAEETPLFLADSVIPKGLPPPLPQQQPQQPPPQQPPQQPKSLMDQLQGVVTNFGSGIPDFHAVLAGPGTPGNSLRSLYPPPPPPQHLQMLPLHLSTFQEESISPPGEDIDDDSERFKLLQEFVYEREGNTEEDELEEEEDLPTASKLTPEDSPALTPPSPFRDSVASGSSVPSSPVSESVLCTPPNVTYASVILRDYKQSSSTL
Sequence of Metabotropic glutamate receptor 5 (P31424 whole entry): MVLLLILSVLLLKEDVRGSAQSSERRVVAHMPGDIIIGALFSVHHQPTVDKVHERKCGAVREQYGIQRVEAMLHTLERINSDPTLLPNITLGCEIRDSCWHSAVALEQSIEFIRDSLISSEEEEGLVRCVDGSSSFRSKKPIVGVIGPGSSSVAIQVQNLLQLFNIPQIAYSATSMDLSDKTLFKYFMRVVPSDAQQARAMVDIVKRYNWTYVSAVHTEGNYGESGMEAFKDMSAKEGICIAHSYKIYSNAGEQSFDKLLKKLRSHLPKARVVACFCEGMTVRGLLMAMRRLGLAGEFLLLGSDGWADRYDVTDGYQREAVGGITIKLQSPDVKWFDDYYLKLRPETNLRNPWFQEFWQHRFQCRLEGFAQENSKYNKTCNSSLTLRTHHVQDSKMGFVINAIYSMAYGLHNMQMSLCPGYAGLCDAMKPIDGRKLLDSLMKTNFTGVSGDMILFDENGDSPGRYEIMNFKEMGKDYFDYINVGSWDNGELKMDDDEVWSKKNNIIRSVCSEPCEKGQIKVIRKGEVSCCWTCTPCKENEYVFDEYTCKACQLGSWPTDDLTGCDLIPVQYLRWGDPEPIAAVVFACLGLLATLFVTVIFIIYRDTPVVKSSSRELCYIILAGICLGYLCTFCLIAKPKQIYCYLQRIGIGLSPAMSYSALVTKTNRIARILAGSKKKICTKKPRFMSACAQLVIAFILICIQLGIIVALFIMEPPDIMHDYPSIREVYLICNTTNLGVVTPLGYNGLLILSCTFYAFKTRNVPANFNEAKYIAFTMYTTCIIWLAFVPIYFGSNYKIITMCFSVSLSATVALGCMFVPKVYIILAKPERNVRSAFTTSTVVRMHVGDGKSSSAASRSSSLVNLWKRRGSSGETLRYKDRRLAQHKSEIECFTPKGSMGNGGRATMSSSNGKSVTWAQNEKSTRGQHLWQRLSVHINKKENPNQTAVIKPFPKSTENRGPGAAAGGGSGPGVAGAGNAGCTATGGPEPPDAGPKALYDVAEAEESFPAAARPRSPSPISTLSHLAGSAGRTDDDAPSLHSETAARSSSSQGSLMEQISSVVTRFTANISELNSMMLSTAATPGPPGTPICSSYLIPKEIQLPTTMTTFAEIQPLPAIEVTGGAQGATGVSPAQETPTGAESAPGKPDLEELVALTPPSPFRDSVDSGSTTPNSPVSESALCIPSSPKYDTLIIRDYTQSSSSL
Sequence of Metabotropic glutamate receptor 1 (P23385 whole entry): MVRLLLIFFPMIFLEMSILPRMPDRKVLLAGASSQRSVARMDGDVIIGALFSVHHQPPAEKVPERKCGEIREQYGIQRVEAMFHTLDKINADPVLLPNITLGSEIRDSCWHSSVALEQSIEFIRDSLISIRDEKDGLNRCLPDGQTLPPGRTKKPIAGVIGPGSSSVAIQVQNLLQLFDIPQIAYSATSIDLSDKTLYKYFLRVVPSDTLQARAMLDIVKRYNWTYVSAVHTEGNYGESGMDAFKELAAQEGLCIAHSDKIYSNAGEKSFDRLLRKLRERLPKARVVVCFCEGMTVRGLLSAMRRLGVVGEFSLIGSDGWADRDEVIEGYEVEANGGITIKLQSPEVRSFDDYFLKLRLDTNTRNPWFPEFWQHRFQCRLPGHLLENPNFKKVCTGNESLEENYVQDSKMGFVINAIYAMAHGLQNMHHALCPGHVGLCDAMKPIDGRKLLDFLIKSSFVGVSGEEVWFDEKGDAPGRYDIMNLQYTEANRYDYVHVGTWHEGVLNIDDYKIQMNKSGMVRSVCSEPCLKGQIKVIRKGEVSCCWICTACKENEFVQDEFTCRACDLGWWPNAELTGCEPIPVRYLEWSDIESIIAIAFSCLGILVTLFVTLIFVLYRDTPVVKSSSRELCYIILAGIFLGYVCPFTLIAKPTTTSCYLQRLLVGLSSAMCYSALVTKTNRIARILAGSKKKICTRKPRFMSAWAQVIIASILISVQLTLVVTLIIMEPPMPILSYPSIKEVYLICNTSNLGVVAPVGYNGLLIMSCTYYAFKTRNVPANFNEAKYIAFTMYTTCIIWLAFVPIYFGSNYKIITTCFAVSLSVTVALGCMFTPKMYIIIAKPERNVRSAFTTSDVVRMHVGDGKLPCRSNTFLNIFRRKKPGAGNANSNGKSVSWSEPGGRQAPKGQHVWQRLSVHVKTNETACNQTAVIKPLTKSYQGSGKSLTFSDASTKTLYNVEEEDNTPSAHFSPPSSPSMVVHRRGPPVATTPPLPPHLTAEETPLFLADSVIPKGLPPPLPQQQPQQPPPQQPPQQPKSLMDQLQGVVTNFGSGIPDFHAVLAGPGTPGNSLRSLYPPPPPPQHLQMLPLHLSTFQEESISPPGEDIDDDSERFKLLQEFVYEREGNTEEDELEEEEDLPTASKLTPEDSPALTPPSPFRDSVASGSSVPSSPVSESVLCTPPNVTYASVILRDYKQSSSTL

pIC50 [1] | pKi [1] | pIC50 [2] | Activity [3] [nM] | Activity [4] | Activity [5] | Activity [6] | Activity [7] [nM] | logD [8] | Activity [9] | Activity [10] | Activity [11] | Activity [12] | Activity [13] [nM] | Activity [14] | Activity [15] | Compound
7.33 | 7.65 | < 5.00 |  |  |  |  |  |  |  |  |  |  |  |  |  | CC(C)Nc1cc(-c2csc(N(C)C(=O)c3ccc(Cl)cc3)n2)ncn1
7.58 | 7.87 | < 5.00 | 27.5 | Active | Active | Active | 36.3 | 1.74 | Active | Active | inactive | Active | 22.2 | inactive | Active | Cc1ccc(C(=O)N(C)c2nc(-c3cc(NC(C)C)ncn3)cs2)cc1
7.19 | 7.56 | < 5.00 |  |  |  |  |  |  |  |  |  |  |  |  |  | CC(C)Nc1cc(-c2csc(N(C)C(=O)c3ccc(C#N)cc3)n2)ncn1
